# Measured values as given in patent US9561210B2, “Therapeutic agent for ocular disease” (AskAt Inc., priority 2013, dated 2017).
# Columns and labels:
# [1] = tested on: human retinal microvascular endothelial cells (HRMEC); test: VEGF-induced HRMEC proliferation study; type: cell-based
# Method: VEGF-Induced Human Retinal Microvascular Endothelial Cells (HRMEC) Proliferation Study
# VEGF is a factor which promotes neovascularization and is thought to be one of the causes of development or progression of age-related macular degeneration (Prog. Retinal Eye Res., 22 (1), 1-29 (2003)). Therefore, the inhibitory effect of the compounds of the invention against VEGF-induced cell proliferation is assessed by using human retinal vascular endothelial cells (HRMEC).
# HRMEC are seeded in 96-well plates at 2.0×10^3 cells/well, and is cultured under the conditions of 5% CO2/95% air for 24 hours. Then the culture medium is exchanged with CSC medium containing 10% fetal bovine serum and the cells are cultured for 24 hours. The culture broth is exchanged with vehicle medium or study medium containing the compound of the invention at 0.1, 1.0, 10, or 100 microM. After preincubation for 1 hour, VEGF-A solution is added to be a concentration of 10 ng/ml, and the cells cultured for 24 hours. The culture broth without adding VEGF-A solution is also treated in the same manner. Then to the culture broth is added CCK-8, and the cells are cultured for 3 hours, then the absorbance (OD492) is measured.
# In accordance with the following formula, the cell proliferation inhibition rate (%) of each compound-treated group is calculated. The number of examples of each group is six. Cell proliferation inhibition rate (%)=([…])×100 [equation] BO: absorbance of vehicle-treated group BX: absorbance of compound-treated group BN: absorbance of non-treated group
# [2] = tested on: choroidal neovascularization; test: Laser-induced choroidal neovascularization (CNV) model; type: in vivo, male C57BL/6J mouse; details: in comparison to the vehicle-treated group
# Method: Laser-Induced Choroidal Neovascularization (CNV) Model A male C57BL/6J mouse is used. Mydrin P ophthalmic solution (registered trademark, Santen Pharmaceutical) is instilled into the right eye of the mouse to cause mydriasis. Animals are anesthetized, and laser irradiation is performed on around the circumference of the optic disk with eight equally space using a laser photocoagulation apparatus. After photocoagulation, intravitreal administration of drugs to the right eye (administering 2 microL of a solution of 60 microM and 600 microM using a solvent obtained by mixing 0.1N NaOH and pH 7.2 PBS containing 1.5×10^-3N HCl, at the ratio of 16:84) or oral administration/subcutaneous administration/intraperitoneal administration is conducted. After instillation of […] (registered trademark, Daiichi Sankyo) ophthalmic solution 0.5% into the right eye, the ocular fundus photography is promptly performed using an ocular fundus camera. […] Choroidal flat mounts specimens are observed using a confocal laser scanning microscope, and the CNV area of the image is calculated using the analysis software OLYMPUS FLUOVIEW FV1000.
smiles,measurement,setting,value
"CC(C)(C)c1cc2c(cc1Cl)C=C(C(=O)O)[C@@H](C(F)(F)F)O2 [Compound A, (S)-6-chloro-7-(1,1-dimethylethyl)-2-trifluoromethyl-2H-1-benzopyran-3-carboxylic acid]",effect on the proliferation of HRMEC,"[1]; Compound A alone, without VEGF-A, FIG. 1 left side",no effect
same,inhibition of the proliferation of HRMEC induced by VEGF-A,"[1]; VEGF-A 10 ng/ml, 24 hours, compound at 0.1, 1.0, 10, or 100 microM, FIG. 1 right side",inhibits the proliferation of HRMEC induced by VEGF-A in a dose-dependent manner
same,inhibition of VEGF-A-induced cell proliferation,"[1]; at 10 to 100 microM, VEGF-A 10 ng/ml",inhibits the cell proliferation to control levels
same,CNV area,"[2]; choroidal flat mount, day 15 after laser, FIG. 2",significantly reduced
same,CNV area (pathological image),"[2]; histopathological specimens, FIG. 3",significantly reduced
